Assay results from EP1134585B1, “Biosensor and method for the monitoring of herbicides” (CONSIGLIO NAZIONALE DELLE RICERCHE, priority 2000, dated 2001).

How the values were obtained:
Vicia faba thylakoids = Vicia faba thylakoids (Vicia faba, UniProt P13910); experiment: Biosensor fluorescence response, immobilized thylakoids (Table A); type: biochemical; conditions: contact time 20 min
From the text: (§1) According to a specially advantageous embodiment, Bioherbi is an equipment weighing in all about […], occupies a space of about 30x30x20 cm and is constituted as reported below. • a) flow cell wherein the biomediator is immobilized. […] The black plastic material allows to fit the biomediator in the dark. The biomediator in entrapped in the inner section. The surface tightness of the reading hole is obtained using a glass cover plate for microscopy. The inner cell, where the mediator is entrapped, has un volume from 50 to 300 µl. • b) a peristaltic pump is the hydraulic part to withdraw the sample containing the herbicide to be analyzed, which moves said sample through the flow cell and brings it in close contact with the biomediator. According to a specially advantageous embodiment a single block is used as holder for the herbicide and peristaltic pump. The flow can be varied from 0,2 to 2 ml/min depending on the sample. Higher flow increases the sensitivity to the herbicide because the latter interacts with a higher number of bonding sites on PS II. By laboratory tests it was found out that, when the solution of the herbicide flows, the efficiency of the fluorescence measure could be impaired by light scattering effects. Accordingly it is preferred to carry out the measure in stopped-flow conditions using a flow switch. The biomediator immobilized within the flow cell, following each measure, is washed and regenerated by a suitable buffer solution. A valve allows to forward alternatively the flow of the buffer or the solution containing the herbicide to be analyzed. • c) optical fiber fluorescence sensor closely connected to the flow cell. The fluorescence emitted from green plants depends on the photosynthetic activity. Recent studies on fluorescence measuring techniques made this feature a very important tool in the basic and applied research about the plant physiology (D Lazar, 1999, Biochim Biophys Acta 1-28). Bioherbi analyzer measures the fluorescence emitted from photosynthetic complexes and modifications determined by the presence of herbicide. The sensor is tightly connected to the flow cell to avoid any infiltration of external light and provides the excitation light detecting the fluorescence signal. The excitation light is emitted from an emitting diode at a very narrow wavelength of about 650 nm, which is quickly absorbed by the Photosystem II of the photosynthetic organisms and has the advantage in that it provides light with reduced heating and emits the signal very quickly. A "feedback" optical circuit controls and adjusts the variations of the intensity of the emitted light also resulting from variations of ambient temperature. The analyzer consists of an high capacity photodiode associated to an amplifier. The optical system responds perfectly to the fluorescence emission wavelength of 700 nm and stops the reflection light of lower wavelength resulting from the emission light. The sensor is connected to the control computer by an about 30 cm long fiber. According to a variation of the biosensor we used a more complex fluorescence system, adjustable as the excitation light in order to allow the use, as biomediator, of photosynthetic organisms requiring specific wavelengths. • e) a control and data processing computer. […] The concentration of the herbicide is proportional to the area over the fluorescence curve (Table 1A-B); the inhibition of this area is closely related to the washing times whereby it is possible to determinate the concentration of the herbicide also using the washing time required to obtain an almost complete inhibition of the area (see Table 1C). The fluorescence signal received by the sensor is processed within the control chamber by transduction systems of the signal and analog-to-digital converters. The system is computerized with a very sophisticated microprocessor able to process the data of the fluorescence signal. […]

[1] = molecular target: T1, thylakoids from Spinacia oleracea (Spinacia oleracea, UniProt P69560); experiment: Biosensor fluorescence response (Tables B and C); type: biochemical; conditions: for inhibition at 0.01 µM: control printed as 100
T1 construct: biomediator based on thylakoids from Spinacia oleracea; from tissue; host or cells: thylakoids isolated from mature spinach plants
From the text: as §1

[2] = tested on: thylakoids from Amaranthus retroflexus, Wild-type; experiment: Biosensor fluorescence response (Table D), wild-type biomediator; type: biochemical; conditions: herbicide concentration 10^-6 M
[3] = tested on: thylakoids from Amaranthus retroflexus, Mutant; type: biochemical; conditions: herbicide concentration 10^-6 M
PS II = PS II treated with CdCl2, refrigeration at 5°C, flow 0,2-2,0 ml/m
From the text: To further increase the stability of the biomediator the usefulness of a system for the refrigeration of the solution containing herbicide forwarded into the measuring cell experimentally was observed.

[4] = tested on: PS II isolated from thermophilic cyanobacteria; conditions: immobilized PS II, Clark electrode (Koblizek et al.); cited from earlier work
monoclonal antibodies = conditions: ELISA (Schneider et al. 1994); cited from earlier work
Phe216->Leu = conditions: cited from earlier work
PhC2,6―Pro = conditions: cited from earlier work
Phe216->Thr = conditions: cited from earlier work
Phe216→Val = conditions: cited from earlier work
Tyr222->Phe = conditions: code T4; cited from earlier work
Thr226->Ala = conditions: cited from earlier work
Thr226->Met = conditions: cited from earlier work
Gly228->Arg = conditions: cited from earlier work
Gly228->Val = conditions: cited from earlier work
I1e229->Ala = conditions: cited from earlier work
I1e229->Cys = conditions: cited from earlier work
I1e228->Leu = conditions: cited from earlier work
I1e229→Met = conditions: R. capsulatus; cited from earlier work
D1 protein A/a251->lIe = D1 protein A/a251->lIe (Chlamydomonas reinhardtii, UniProt P07753, A251I); conditions: cited from earlier work
D1 protein Phe255->Tyr = D1 protein Phe255->Tyr (Chlamydomonas reinhardtii, UniProt P07753, F255Y); conditions: code Ar207+; cited from earlier work
D1 protein Asn266->Asp = conditions: code loxlla; cited from earlier work
[5] = molecular target: D1 protein Phe211→Ala Met214→Thr (Chlamydomonas reinhardtii, UniProt P07753, F211A/M214T); conditions: cited from earlier work
[6] = Diuron 10^-9 M, after regeneration
[7] = Table B, first column Diuron 10^-8 M, contact time 15 min
[8] = Table B, second column Diuron 10^-8 M, contact time 15 min

In the case of `CN(C)C(=O)Nc1ccc(Cl)c(Cl)c1` [Diuron], the Area (Vicia faba thylakoids; Diuron 10^-6 M, area over the fluorescence curve) is reported as 10300, the inhibition at 1 µM (Vicia faba thylakoids; Diuron 10^-6 M, inhibition of area vs control) is reported as 93% and the Fv/Fm (Vicia faba thylakoids; Diuron 10^-6 M, mean of at least three measures) is reported as 0,540. The Area (Vicia faba thylakoids; [6]) was 4030, the Fv/Fm (Vicia faba thylakoids; [6]) was 0,475 and the inhibition at 0.001 µM (Vicia faba thylakoids; [6]) was 60%. For the same molecule, the Area [1, 7] was 12700, the Fv/Fm [1, 7] was 0,768 and the inhibition at 0.01 µM [1, 7] was 88%. The Area [1, 8] was 10400, the Fv/Fm [1, 8] was 0,756 and the inhibition at 0.01 µM [1, 8] was 71%. For the same molecule, the Area ([1]; Table C, Diuron 10^-7M, 10 min) was 7830, the Fv/Fm ([1]; Table C, Diuron 10^-7M, 10 min) was 0,746 and the inhibition at 0.1 µM ([1]; Table C, Diuron 10^-7M, 10 min) was 32%. The Area ([1]; Table C, Diuron 10^-7M, 40 min) was 6120, the Fv/Fm ([1]; Table C, Diuron 10^-7M, 40 min) was 0,711 and the inhibition at 0.1 µM ([1]; Table C, Diuron 10^-7M, 40 min) was 47%. The Area ([1]; Table C, Diuron 10^-7M, 50 min) was 5090, the Fv/Fm ([1]; Table C, Diuron 10^-7M, 50 min) was 0,700 and the inhibition at 0.1 µM ([1]; Table C, Diuron 10^-7M, 50 min) was 56%. For the same molecule, the Area ([1]; Table C, Diuron 10^-7M, 60 min) was 4160, the Fv/Fm ([1]; Table C, Diuron 10^-7M, 60 min) was 0,684 and the inhibition at 0.1 µM ([1]; Table C, Diuron 10^-7M, 60 min) was 64%. The “Area % inhibition Wild-type” value [2] was 99%, the “Area % inhibition Mutant” value [3] was 96% and the “sensitivity (concentration)” value (PS II) was “lower than nanomolar”. The sensitivity [4] was 10^-10 mol/l, the sensitivity (monoclonal antibodies) was 200 pM and the “Resistance R/S” value (Phe216->Leu) was “Diuron 1”. The “Resistance R/S” value (PhC2,6―Pro) was “patron 1”, the “Resistance R/S” value (Phe216->Thr) was “Diuron 1” and the “Resistance R/S” value (Phe216→Val) was “Diuron 1”. For the same molecule, the “Supersensitivity R/S” value (Tyr222->Phe) was “Diuron <0,0001”, the “Resistance R/S” value (Thr226->Ala) was “Diuron 1” and the “Resistance R/S” value (Thr226->Met) was “Diuron 1”. For the same molecule, the “Resistance R/S” value (Gly228->Arg) was “Diuron 1”, the “Resistance R/S” value (Gly228->Val) was “Diuron 1” and the “Resistance R/S” value (I1e229->Ala) was “Diuron 1”. For the same molecule, the “Resistance R/S” value (I1e229->Cys) was “Diuron 1”, the “Resistance R/S” value (I1e228->Leu) was “Diuron 1” and the “Resistance R/S” value (I1e229→Met) was “Diuron 1”. The “Supersensitivity R/S” value (D1 protein A/a251->lIe) was “Diuron 0,6”, the “Supersensitivity R/S” value (D1 protein Phe255->Tyr) was “Diuron 0,6-0,8” and the “Supersensitivity R/S” value (D1 protein Asn266->Asp) was “Diuron 0,7”. For the same molecule, the “Supersensitivity R/S” value [5] was “Diuron 0,8”.
